{
  "source": "patent US20140378460A1",
  "about": "“COMPOSITIONS AND METHODS FOR TREATING NEURODEGENERATIVE DISEASE” (COGNITION THERAPEUTICS, INC., priority 2011, published 2014)",
  "key": {"[1]": {"assay": "in vivo", "conditions": "male, C57BL/6, mouse, sc, 10 mg/kg", "from_the_text": "A plasma calibration curve was generated.\nSubcutaneous compound administration was accomplished by […]. Per oral administration was accomplished by gastric gavage. Intravenous administration was accomplished via jugular catheter.\nA brain calibration curve was generated."}, "[2]": {"test_system": "Abeta oligomer-induced membrane trafficking deficits in primary hippocampal neurons", "assay": "Membrane trafficking/exocytosis (MTT) assay", "type": "cell-based, rat", "conditions": "for EC50: Rattus norvegicus, Hippocampal neuron; for Effect on membrane trafficking when dosed alone (words): absence of Abeta oligomers; for Effect against human Alzheimer's patient-derived Abeta oligomers (words): oligomers isolated from AD patient brains"}, "[3]": {"target": "Sigma-1 receptors (Homo sapiens, UniProt Q99720)", "sequence (Q99720 whole entry)": "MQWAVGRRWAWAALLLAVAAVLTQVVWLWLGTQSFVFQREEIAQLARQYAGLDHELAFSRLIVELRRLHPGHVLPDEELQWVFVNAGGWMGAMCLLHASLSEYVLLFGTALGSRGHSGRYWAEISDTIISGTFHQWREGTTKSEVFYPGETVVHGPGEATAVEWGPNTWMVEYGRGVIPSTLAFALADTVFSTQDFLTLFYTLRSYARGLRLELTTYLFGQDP", "assay": "Sigma-1 competitive radioligand binding, [3H](+)pentazocine, Jurkat cell membranes", "procedure": "Reactions were terminated by rapid filtration through Whatman GF/C filters using a Brandel 12R cell harvester followed by two washes with ice-cold buffer. Radioactivity on the dried filter discs was measured using a liquid scintillation analyzer (Tri-Carb 2900TR; PerkinElmer Life and Analytical Sciences). The displacement curves were plotted and the Ki values of the test ligands for the receptor subtypes were determined using GraphPad Prism (GraphPad Software Inc., San Diego, Calif.). The percentage specific binding was determined by dividing the difference between total bound (disintegrations per minute) and nonspecific bound (disintegrations per minute) by the total bound (disintegrations per minute)."}, "[4]": {"target": "alpha 1A (h) (antagonist effect) (Homo sapiens, UniProt P35348)", "sequence (P35348 whole entry)": "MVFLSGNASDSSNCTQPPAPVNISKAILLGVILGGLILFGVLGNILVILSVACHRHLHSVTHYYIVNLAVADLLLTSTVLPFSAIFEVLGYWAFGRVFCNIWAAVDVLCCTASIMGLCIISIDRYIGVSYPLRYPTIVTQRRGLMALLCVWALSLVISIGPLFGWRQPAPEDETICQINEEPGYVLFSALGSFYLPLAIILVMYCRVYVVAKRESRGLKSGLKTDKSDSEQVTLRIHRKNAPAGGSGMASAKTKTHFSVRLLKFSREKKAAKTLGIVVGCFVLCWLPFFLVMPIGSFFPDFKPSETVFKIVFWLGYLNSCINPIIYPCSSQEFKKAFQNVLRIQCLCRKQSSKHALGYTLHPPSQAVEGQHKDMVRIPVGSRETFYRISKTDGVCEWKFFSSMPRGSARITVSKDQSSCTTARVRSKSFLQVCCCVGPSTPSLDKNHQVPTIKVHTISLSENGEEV", "assay": "Receptor panel, block of downstream signaling", "type": "cell-based", "conditions": "read-out: % Inhibition of Control", "experimental": "(§1) It was also tested for its ability to block downstream signaling induced by agonists or antagonists of a given human receptor."}, "[5]": {"target": "D3(h) (agonist effect) (Homo sapiens, UniProt P35462)", "sequence (P35462 whole entry)": "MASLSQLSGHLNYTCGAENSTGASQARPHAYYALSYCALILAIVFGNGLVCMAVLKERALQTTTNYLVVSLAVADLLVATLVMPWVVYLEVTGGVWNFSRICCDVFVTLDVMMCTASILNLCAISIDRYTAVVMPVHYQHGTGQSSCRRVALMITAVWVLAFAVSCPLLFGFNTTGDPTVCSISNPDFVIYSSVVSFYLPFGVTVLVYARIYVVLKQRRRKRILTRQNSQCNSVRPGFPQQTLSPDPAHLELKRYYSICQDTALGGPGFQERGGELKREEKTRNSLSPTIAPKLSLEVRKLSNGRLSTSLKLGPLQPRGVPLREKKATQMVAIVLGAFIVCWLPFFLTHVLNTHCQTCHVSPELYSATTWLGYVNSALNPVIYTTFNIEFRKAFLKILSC", "assay": "Receptor panel, block of downstream signaling", "type": "cell-based", "experimental": "as §1"}, "[6]": {"test_system": "sigma-2 receptor", "conditions": "1 μM each; 18.4 nM [3H]-RHM-1"}, "[7]": {"test_system": "Abeta oligomer-induced synapse loss in primary hippocampal neurons", "assay": "Synapse loss assay", "type": "cell-based, rat", "experimental": "In this assay, Abeta oligomers were brought in contact with mature primary neurons in culture and their binding was determined by immunohistochemistry (anti-Abeta antibody) and quantified by image processing. The amount of Abeta in neuronal dendrites is assessed by counting the number of labeled puncta on the neuritis. […] This labeling is associated with synapses, co-localizing with the post-synaptic scaffold protein PSD-95 (Lacor et al., '04). […] The number of synapses can also be quantified in this assay by immunofluorochemistry. Similar procedures for binding assays can be found in the literature. […] Review.\nPrimary hippocampal neuronal culture was established as in the membrane trafficking assay above. […] Pretreatment with compounds to be tested lasted for 1 hr and addition of Abeta oligomers or no oligomer (vehicle alone) in a final concentration of 70 ul was followed by incubation for an additional 23 hrs.\nThe plates were then washed 3× with PBS for 5 min each. The plates were blocked at RT for 1 hr in 5% goat serum and 0.5% Triton X-100 in PBS. […] Primary antibodies were incubated overnight at 4° C. The plates were then washed 3× with PBS for 5 min each. […] Secondary antibodies were incubated at RT for 1 hr. The plates were washed once with PBS. DAPI (4′,6-diamidino-2-phenylindole, Invitrogen) was then applied at 0.03 ug/ul and incubated at RT for 5 min, then washed with PBS."}, "[8]": {"test_system": "neurons and glia in culture", "assay": "In vitro neuronal and glial toxicity", "type": "cell-based", "conditions": "acute or chronic dosing, up to 50 μM, three days", "from_the_text": "The sigma-2 receptor antagonists eliminated or reduced Abeta oligomer-induced changes in membrane trafficking."}, "[9]": {"target": "mu (MOP) (h) (agonist radioligand) (Homo sapiens, UniProt P35372)", "sequence (P35372 whole entry)": "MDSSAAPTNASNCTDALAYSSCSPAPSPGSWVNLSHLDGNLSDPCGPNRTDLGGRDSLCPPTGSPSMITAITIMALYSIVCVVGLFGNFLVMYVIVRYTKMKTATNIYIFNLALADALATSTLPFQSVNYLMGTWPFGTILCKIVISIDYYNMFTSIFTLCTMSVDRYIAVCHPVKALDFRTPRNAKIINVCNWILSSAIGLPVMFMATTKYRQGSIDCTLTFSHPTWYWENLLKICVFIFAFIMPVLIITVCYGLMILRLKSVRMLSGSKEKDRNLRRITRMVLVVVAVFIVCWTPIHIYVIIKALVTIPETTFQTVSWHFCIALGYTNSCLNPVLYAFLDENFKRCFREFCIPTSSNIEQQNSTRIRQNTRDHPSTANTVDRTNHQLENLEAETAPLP", "assay": "Receptor panel, inhibition of binding"}, "[10]": {"test_system": "HepG2 tumor cell line", "assay": "HepG2 toxicity", "type": "cell-based", "conditions": "10 μM"}, "[11]": {"conditions": "read-out: % Inhibition of Control"}},
  "note": "Entries after “also recorded” stand apart in the source; their conditions may differ. Read-outs that look alike come from different tables or passages of the source.",
  "data": [
    {"compound": "COc1cc(CCC(C)NCc2ccc(C(F)(F)F)cc2)ccc1O", "note": "(stereo not drawn) [Compound II]", "values": [
      {"measurement": "AUC", "setting": "[1]", "result": 385, "unit": "ng·h/mL"},
      {"measurement": "Cmax", "setting": "[1]", "result": 279, "unit": "ng/mL"},
      {"measurement": "Tmax", "setting": "[1]", "result": 30, "unit": "min"},
      {"measurement": "Effect on Abeta oligomer trafficking deficits over the concentrations tested", "setting": "[2]", "result": "blocks oligomer-induced trafficking deficits at all concentrations tested"},
      {"measurement": "Max Inhibition of Abeta (%)", "setting": "[2]", "result": 68, "unit": "%"},
      {"measurement": "Ki", "setting": "[2]; Km for Abeta = 0.4 uM, assay concentr. 3 μM total Abeta, read-out: Calculated Ki", "result": 260, "unit": "nM"},
      {"measurement": "EC50", "setting": "[2]; Table 11A, read-out: Block Aβ-induced membrane trafficking deficits EC50", "result": 2200, "unit": "nM"},
      {"measurement": "EC50", "setting": "[2]; Table 11B, read-out: Inhibition Abeta oligomer-induced Membrane Trafficking EC50", "result": 2200, "unit": "nM"},
      {"measurement": "EC50", "setting": "[2]; Table 12, read-out: EC50", "result": 2200, "unit": "nM"},
      {"measurement": "EC50", "setting": "[2]; added after oligomers (treatment mode), read-out: EC50 blocking oligomer effects", "result": 4100, "unit": "nM"},
      {"measurement": "EC50", "setting": "[2]; added before oligomers (prevention mode), read-out: EC50 blocking oligomer effects", "result": 2200, "unit": "nM"},
      {"measurement": "Functional Neuronal Phenotype", "setting": "[2]; Table 11B", "result": "Antagonist"},
      {"measurement": "Effect on membrane trafficking when dosed alone (words)", "setting": "[2]", "result": "no significant effect on membrane trafficking"},
      {"measurement": "Effect on membrane trafficking when dosed alone (words)", "setting": "[2]; listed as compound II", "result": "does not affect membrane trafficking"},
      {"measurement": "Cpd alone at Ki", "setting": "[2]; compound without Abeta oligomers", "result": "+1%"},
      {"measurement": "Max Inhib. of Abeta (Conc)", "setting": "[2]; concentration in brackets", "result": "85% (10)"},
      {"measurement": "Effect against human Alzheimer's patient-derived Abeta oligomers (words)", "setting": "[2]", "result": "completely eliminated"},
      {"measurement": "Effect against human Alzheimer's patient-derived Abeta oligomers (words)", "setting": "[2]; listed as compound II", "result": "rightward shift; also recorded: blocks the membrane trafficking deficits"},
      {"measurement": "Schild slope", "setting": "[2]; synthetic Abeta oligomers", "result": "−0.75"},
      {"measurement": "Assay effects in the absence of Aβ", "setting": "[2]; trafficking or synapse number without Abeta oligomer", "result": "No"},
      {"measurement": "Ki", "setting": "[3]; Ki at sigma-1 receptors, displacement of [3H]-(+)-pentazocine, human Jurkat cell membranes", "result": 500, "unit": "nM"},
      {"measurement": "Ki", "setting": "[3]; S1 binding Ki (nM), Table 11B", "result": 500, "unit": "nM"},
      {"measurement": "Ki", "setting": "[3]; Sigma 1 Binding Ki (nM), Table 2, own compounds", "result": 500, "unit": "nM"},
      {"measurement": "Ki", "setting": "[3]; Sigma Affinity (S1) nM, Table 11E, own compounds", "result": 500, "unit": "nM"},
      {"measurement": "inhibition at 10 µM", "setting": "[4]", "result": 56, "unit": "%"},
      {"measurement": "Other Targets: D3", "setting": "[5]; Table 11E", "result": "D3 (4 uM), Mu"},
      {"measurement": "inhibition at 10 µM", "setting": "[5]; [11]", "result": 66, "unit": "%"},
      {"measurement": "Displacement of [3H]-RHM-1", "setting": "[6]", "result": "partially displace"},
      {"measurement": "Effect on Abeta oligomer-induced synapse loss", "setting": "[7]", "result": "completely eliminated this synaptic regression"},
      {"measurement": "Abeta oligomer-induced synapse loss eliminated", "setting": "[7]; 5 μM", "result": 100, "unit": "%"},
      {"measurement": "Block synapse loss", "setting": "[7]; Table 11B", "result": 100, "unit": "%"},
      {"measurement": "Abeta oligomer-induced synapse loss eliminated / recovery", "setting": "[7]; b801", "result": 100, "unit": "%"},
      {"measurement": "Neuronal or glial toxicity", "setting": "[8]", "result": "did not induce neuronal or glial toxicity"},
      {"measurement": "Other Targets: Mu opioid", "setting": "[9]; Table 11E", "result": "opioid (4 uM),"},
      {"measurement": "inhibition at 10 µM", "setting": "[9]; [11]", "result": 60, "unit": "%"},
      {"measurement": "HepG2 toxicity", "setting": "[10]", "result": 66, "unit": "%"}
    ]}
  ]
}
